# Measured values: patent US20240408169A1 (priority 2023, published 2024)
# Where two headings read alike, the source gives them in different places. *1 amine or outer side, *2 acyl side, *3 side chain or, on linkers, in order; H or OH if unused. Where a SMILES comes first, the peptide text is derived from it. Bridges are numbered along the chain shown (N, C = ends). [ ]: non-standard residue; d: D form. The star is where a group is joined. X7 = CC(C)C(=O)N1[C@H]2CC[C@@H]1C=C(c1ccc(F)cc1C[C@@H](C(=O)[*:2])N(C)[*:1])C2; NMePhe(2-(4-MorPh),5-Cl) = CN[C@@H](Cc1cc(Cl)ccc1-c1ccc(N2CCOCC2)cc1)C(=O)O; X107 = CN([C@@H](Cc1cc(Cl)ccc1-c1ccc(-c2cnn(C)c2)cc1)C(=O)[*:2])[*:1]; X13 = CN([C@@H](Cc1cc(Cl)ccc1-c1cnn(CCS(C)(=O)=O)c1)C(=O)[*:2])[*:1]; X31 = CN1CCC(c2ccc(-c3ccc(Cl)cc3C[C@@H](C(=O)[*:2])N(C)[*:1])cc2)CC1; X37 = CN1CCN(c2ccc(-c3ccc(F)cc3C[C@@H](C(=O)[*:2])N(C)[*:1])cn2)CC1; NMePhe(5-Cl,2-O(2-Pym)) = CN[C@@H](Cc1cc(Cl)ccc1Oc1ncccn1)C(=O)O; NMehhhLys(Me) = CN([C@@H](CCCCCCCN(C)[*:3])C(=O)[*:2])[*:1]; X104 = CN([C@@H](Cc1cc(Cl)ccc1C1=CCOCC1)C(=O)[*:2])[*:1]; X64 = CN([C@@H](Cc1cc(Cl)ccc1OC1(C)CC1)C(=O)[*:2])[*:1]; NMe(hhhLys) = CN([C@@H](CCCCCCCN[*:3])C(=O)[*:2])[*:1]; X28 = CN([C@@H](Cc1cc(Cl)cnc1OC1CCC1)C(=O)[*:2])[*:1]; X41 = CN([C@@H](Cc1cc(Cl)cc2c1ccn2C)C(=O)[*:2])[*:1]; Cyclobutanecarbonyl(1-CF3) = O=C(C1(C(F)(F)F)CCC1)*; cBuCO(3,3-F2-1-CF3) = O=C(C1(C(F)(F)F)CC(F)(F)C1)*; Pro(trans-4-F) = O=C(O)[C@@H]1C[C@@H](F)CN1; Pivaloyl(3,3,3-F3) = CC(C)(C(=O)*)C(F)(F)F; Gly(cPr) = N[C@H](C(=O)O)C1CC1
# Columns and labels:
# CyclinA2/CDK2 = biological target: T1, CyclinA2/CDK2 (Homo sapiens, UniProt P20248); assay: Fluorescence Polarization (FP) competitive binding assay, Cyclin A2/Cdk2;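 further: plates equilibrated two hours at room temperature before polarization reading, IC50 fitted from eight-concentration compound titration curves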
# T1 construct: purchased CRELUX Protein Services
# CyclinB1/CDK1 = biological target: T2, CyclinB1/CDK1 (Homo sapiens, UniProt P14635); assay: Fluorescence Polarization (FP) competitive binding assay, Cyclin B1/Cdk1;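 further: fluorescence polarization read after equilibration at room temperature, with IC50 taken from serially diluted dose-response curves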
# T2 construct: purchased Eurofins, discovery 14-450
# CyclinE1/CDK2 = biological target: T3, CyclinE1/CDK2 (Homo sapiens, UniProt P24864); assay: Fluorescence Polarization (FP) competitive binding assay, Cyclin E1/Cdk2;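 further: readings taken after two-hour equilibration at room temperature in HEPES buffer with NaCl, DTT, NP-40 and BSA, IC50 fitted from eight-concentration serial dilution series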
# T3 construct: purchased Eurofins, discovery 14-475
# WI-38 cells = assay: MTT proliferation assay, WI-38; type: cell-based; details: 3 days compound exposure, 1:3 serial dilution starting at 10 μM;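 further: Eight- or ten-point dilution series, with exposure length chosen to span about three to four cell doublings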
# NCI-H1048 cells = assay: MTT proliferation assay, NCI-H1048; type: cell-based; details: 5 days compound exposure, 1:3 serial dilution starting at 10 μM;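 further: Dose-response in 96-well plates over 8 or 10 concentration points, with exposure spanning 3-4 cell doublings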
# OVCAR3 cells = assay: MTT proliferation assay, OVCAR3; type: cell-based; details: 5 days compound exposure, 1:3 serial dilution starting at 10 μM;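 further: compound given as an 8- or 10-point series, one day after plating, with exposure covering roughly 3-4 cell doublings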
# [1] = 8 nM Cyclin A2/Cdk2, 2 nM FAM probe, average of 2-3 independent experiments, read-out: Cyclin A FP IC50
# [2] = 10 nM Cyclin B1/Cdk1, 2 nM FAM probe; average of 2-3 independent experiments; read-out: Cyclin B FP IC50
# [3] = 10 nM Cyclin E1/Cdk2, 2 nM FAM probe, average of 2-3 independent experiments, read-out: Cyclin E FP IC50
SMILES,IC50 (CyclinA2/CDK2; [1]) [nM],IC50 (CyclinB1/CDK1; [2]) [nM],IC50 (CyclinE1/CDK2; [3]) [nM],GI50 (WI-38 cells) [nM],GI50 (NCI-H1048 cells) [nM],GI50 (OVCAR3 cells) [nM],IC50 (CyclinA2/CDK2) [nM],"IC50 (CyclinB1/CDK1; read-out: Cyclin B FP IC50; 10 nM Cyclin B1/Cdk1, 2 nM FAM probe; average of 2-3 independent experiments) [nM]",IC50 (CyclinE1/CDK2) [nM]
"CC(C)C[C@@H]1NC(=O)[C@@H](N(C)C(=O)[C@@H](NC(=O)[C@@H]2C[C@@H](F)CN2C(=O)C2(C(F)(F)F)CC(F)(F)C2)C2CC2)CCCCCCCN(C)C(=O)[C@H](Cc2cc(F)ccc2-c2ccc(N3CCN(C)CC3)nc2)N(C)C1=O [Example 391] ({cBuCO(3,3-F2-1-CF3)}-[Pro(trans-4-F)][Gly(cPr)][NMehhhLys(Me)]L[X37]; lactam 3-C)",30,20,610,7820,10,10,,,
CCN(C(=O)[C@@H](NC(=O)[C@@H]1C[C@@H](F)CN1C(=O)C1(C(F)(F)F)CC(F)(F)C1)C1CC1)[C@H]1CCCCCCCN(C)C(=O)[C@H](Cc2cc(Cl)cnc2OC2CC2)N(C)C(=O)[C@H](CC(C)C)NC1=O [Example 219],,,,14100,40,80,100,20,1430
"CC(C)C[C@@H]1NC(=O)[C@@H](N(C)C(=O)[C@@H](NC(=O)[C@@H]2C[C@@H](F)CN2C(=O)C2(C(F)(F)F)CC(F)(F)C2)C2CC2)CCCCCCCN(C)C(=O)[C@H](Cc2cc(Cl)ccc2-c2ccc(N3CCOCC3)cc2)N(C)C1=O [Example 261] ({cBuCO(3,3-F2-1-CF3)}-[Pro(trans-4-F)][Gly(cPr)][NMehhhLys(Me)]L[NMePhe(2-(4-MorPh),5-Cl)]; lactam 3-C)",20,20,430,14100,10,10,,,
"CC(C)C[C@@H]1NC(=O)[C@@H](N(C)C(=O)[C@@H](NC(=O)[C@@H]2C[C@@H](F)CN2C(=O)C2(C(F)(F)F)CC(F)(F)C2)C2CC2)CCCCCCCN(C)C(=O)[C@H](Cc2cc(F)ccc2C2=C[C@H]3CC[C@@H](C2)N3C(=O)C(C)C)N(C)C1=O [Example 318] ({cBuCO(3,3-F2-1-CF3)}-[Pro(trans-4-F)][Gly(cPr)][NMehhhLys(Me)]L[X7]; lactam 3-C)",20,20,280,9920,10,10,,,
"CC(C)C[C@@H]1NC(=O)[C@@H](N(C)C(=O)[C@@H](NC(=O)[C@@H]2C[C@@H](F)CN2C(=O)C(C)(C)C(F)(F)F)C2CC2)CCCCCCCN(C)C(=O)[C@H](Cc2cc(Cl)ccc2-c2ccc(N3CCOCC3)cc2)N(C)C1=O [Example 335] ({Pivaloyl(3,3,3-F3)}-[Pro(trans-4-F)][Gly(cPr)][NMehhhLys(Me)]L[NMePhe(2-(4-MorPh),5-Cl)]; lactam 3-C)",20,20,160,4750,10,10,,,
"CC(C)C[C@@H]1NC(=O)[C@@H](N(C)C(=O)[C@@H](NC(=O)[C@@H]2C[C@@H](F)CN2C(=O)C2(C(F)(F)F)CC(F)(F)C2)C2CC2)CCCCCCCN(C)C(=O)[C@H](Cc2cc(Cl)cnc2OC2CCC2)N(C)C1=O [Example 140] ({cBuCO(3,3-F2-1-CF3)}-[Pro(trans-4-F)][Gly(cPr)][NMehhhLys(Me)]L[X28]; lactam 3-C)",20,20,120,9250,50,130,,,
"CC[C@H](NC(=O)C1(C(F)(F)F)CC1)C(=O)N[C@@H](C)C(=O)N[C@H]1CC=CCCCCNC(=O)[C@H](Cc2cc(Cl)ccc2Cl)N(C)C(=O)[C@H](CC(C)C)NC1=O [Example 1, N—((S)-1-(((S)-1-(((3S,6S,9S)-3-(2,5-dichlorobenzyl)-6-isobutyl-4-methyl-2,5,8-trioxo-1,4,7-triazacyclohexadec-11-en-9-yl)amino)-1-oxopropan-2-yl)amino)-1-oxobutan-2-yl)-1-(trifluoromethyl)cyclopropane-1-carboxamide]",210,20,440,14600,4000,6610,,,
"CC(C)C[C@@H]1NC(=O)[C@@H](N(C)C(=O)[C@@H](NC(=O)[C@@H]2C[C@@H](F)CN2C(=O)C2(C(F)(F)F)CC(F)(F)C2)C2CC2)CCCCCCCN(C)C(=O)[C@H](Cc2cc(Cl)ccc2-c2cnn(CCS(C)(=O)=O)c2)N(C)C1=O [Example 257] ({cBuCO(3,3-F2-1-CF3)}-[Pro(trans-4-F)][Gly(cPr)][NMehhhLys(Me)]L[X13]; lactam 3-C)",20,20,120,13300,10,10,,,
"CC(C)C[C@@H]1NC(=O)[C@@H](N(C)C(=O)[C@@H](NC(=O)[C@@H]2C[C@@H](F)CN2C(=O)C2(C(F)(F)F)CC(F)(F)C2)C2CC2)CCCCCCCNC(=O)[C@H](Cc2cc(Cl)ccc2C2=CCOCC2)N(C)C1=O [Example 21] ({cBuCO(3,3-F2-1-CF3)}-[Pro(trans-4-F)][Gly(cPr)][NMe(hhhLys)]L[X104]; lactam 3-C)",20,20,1130,6850,10,20,,,
"CC(C)C[C@@H]1NC(=O)[C@@H](N(C)C(=O)[C@@H](NC(=O)[C@@H]2C[C@@H](F)CN2C(=O)C2(C(F)(F)F)CC(F)(F)C2)C2CC2)CCCCCCCN(C)C(=O)[C@H](Cc2cc(Cl)cc3c2ccn3C)N(C)C1=O [Example 393] ({cBuCO(3,3-F2-1-CF3)}-[Pro(trans-4-F)][Gly(cPr)][NMehhhLys(Me)]L[X41]; lactam 3-C)",6670,47,1690,13700,1790,1310,,,
CC(C)C[C@@H]1NC(=O)[C@@H](N(C)C(=O)[C@@H](NC(=O)[C@@H]2C[C@@H](F)CN2C(=O)C2(C(F)(F)F)CC(F)(F)C2)C2CC2)CCCCCCN(C)C(=O)[C@H](Cc2cc(Cl)ccc2-c2cnn(C3CC3)c2)N(C)C1=O [Example 73],30,20,930,3650,40,60,,,
CC(C)C[C@@H]1NC(=O)[C@@H](N(C)C(=O)[C@H](CCC(=O)N2CCN(C)CC2)NC(=O)[C@@H]2C[C@@H](F)CN2C(=O)C2(C(F)(F)F)CC(F)(F)C2)CCCCCCCN(C)C(=O)[C@H](Cc2cc(Cl)ccc2-c2ccc(N3CCOCC3)cc2)N(C)C1=O [Example 420],20,20,190,3510,10,20,,,
"CC(C)C[C@@H]1NC(=O)[C@@H](N(C)C(=O)[C@@H](NC(=O)[C@@H]2C[C@@H](F)CN2C(=O)C2(C(F)(F)F)CC(F)(F)C2)C2CC2)CCCCCCCN(C)C(=O)[C@H](Cc2cc(Cl)ccc2-c2ccc(-c3cnn(C)c3)cc2)N(C)C1=O [Example 338] ({cBuCO(3,3-F2-1-CF3)}-[Pro(trans-4-F)][Gly(cPr)][NMehhhLys(Me)]L[X107]; lactam 3-C)",30,20,1700,18900,20,20,,,
"CC(C)C[C@@H]1NC(=O)[C@@H](N(C)C(=O)[C@@H](NC(=O)[C@@H]2C[C@@H](F)CN2C(=O)C2(C(F)(F)F)CC(F)(F)C2)C2CC2)CCCCCCCN(C)C(=O)[C@H](Cc2cc(Cl)ccc2-c2ccc(C3CCN(C)CC3)cc2)N(C)C1=O [Example 358] ({cBuCO(3,3-F2-1-CF3)}-[Pro(trans-4-F)][Gly(cPr)][NMehhhLys(Me)]L[X31]; lactam 3-C)",20,20,550,2130,10,10,,,
"CC(C)C[C@@H]1NC(=O)[C@@H](N(C)C(=O)[C@@H](NC(=O)[C@@H]2C[C@@H](F)CN2C(=O)C2(C(F)(F)F)CC(F)(F)C2)C2CC2)CCCCCCCN(C)C(=O)[C@H](Cc2cc(Cl)ccc2OC2(C)CC2)N(C)C1=O [Example 259] ({cBuCO(3,3-F2-1-CF3)}-[Pro(trans-4-F)][Gly(cPr)][NMehhhLys(Me)]L[X64]; lactam 3-C)",70,20,280,10400,110,110,,,
"CC(C)C[C@@H]1NC(=O)[C@@H](N(C)C(=O)[C@@H](NC(=O)[C@@H]2C[C@@H](F)CN2C(=O)C2(C(F)(F)F)CCC2)C2CC2)CCCCCCCN(C)C(=O)[C@H](Cc2cc(Cl)ccc2Oc2ncccn2)N(C)C1=O [Example 159] ({Cyclobutanecarbonyl(1-CF3)}-[Pro(trans-4-F)][Gly(cPr)][NMehhhLys(Me)]L[NMePhe(5-Cl,2-O(2-Pym))]; lactam 3-C)",80,20,200,9450,10,20,,,
CC(C)C[C@@H]1NC(=O)[C@@H](N(C)C(=O)[C@@H](NC(=O)[C@@H]2C[C@@H](F)CN2C(=O)C2(C(F)(F)F)CCC2)C2CC2)C/C=C\CCCCN(C)C(=O)[C@H](Cc2cc(Cl)ccc2-c2cnn(C3CC3)c2)N(C)C1=O [Example 176],20,20,100,5480,10,10,,,
